Reference: patent US11236106B2, “Cycloalkane-1,3-diamine derivative” (Daiichi Sankyo Company, Limited, priority 2018, dated 2022)
Structures can show the parent of a compound that is named as a salt. Where two headings read alike, the source gives them in different places.

Target: T1, menin and MLL (menin, Flag tagged; biotinylated MLL1 peptide 1-46aa) (Homo sapiens, UniProt O00255)
T1 sequence (O00255 1-610): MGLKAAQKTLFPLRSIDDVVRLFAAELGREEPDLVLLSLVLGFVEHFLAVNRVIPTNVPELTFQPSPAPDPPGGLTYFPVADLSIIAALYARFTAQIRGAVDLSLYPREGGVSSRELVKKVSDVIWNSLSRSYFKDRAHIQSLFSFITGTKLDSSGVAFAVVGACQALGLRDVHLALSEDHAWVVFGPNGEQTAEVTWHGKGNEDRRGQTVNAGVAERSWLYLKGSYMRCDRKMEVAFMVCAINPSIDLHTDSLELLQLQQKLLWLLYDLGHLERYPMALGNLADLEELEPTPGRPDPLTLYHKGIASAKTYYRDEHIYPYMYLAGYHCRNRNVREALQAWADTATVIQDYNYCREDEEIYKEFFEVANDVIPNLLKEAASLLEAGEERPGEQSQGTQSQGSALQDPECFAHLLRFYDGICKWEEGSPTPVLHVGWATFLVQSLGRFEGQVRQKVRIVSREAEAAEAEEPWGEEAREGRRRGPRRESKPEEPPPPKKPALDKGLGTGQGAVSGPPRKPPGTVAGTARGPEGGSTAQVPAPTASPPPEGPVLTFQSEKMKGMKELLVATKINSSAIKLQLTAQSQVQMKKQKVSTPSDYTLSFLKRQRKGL
Assay: biochemical

[1] = IC50, binding inhibitory activity between menin and MLL, AlphaLISA, 1 nM menin, 10 nM biotinylated MLL1 peptide

Description: Then, the fluorescence signal by AlphaLISA (registered trademark, PerkinElmer Co., Ltd.) was measured using a plate reader (PerkinElmer Co., Ltd., EnVisionXcite).

Structure (SMILES) | IC50 | IC50 [1]
COc1cc(-c2ccc(CN[C@H]3C[C@@H](O)[C@@H](N(C)c4ncnc5sc(CC(F)(F)F)cc45)C3)cc2)nnc1N1CCC1 [Example 105, (1R,2S,4R)-4-[({4-[6-(azetidin-1-yl)-5-methoxypyridazin-3-yl]phenyl}methyl)amino]-2-{methyl[6-(2,2,2-trifluoroethyl)thieno[2,3-d]pyrimidin-4-yl]amino}cyclopentan-1-ol hydrochloride] | 8 nM | –
COc1nc(N(C)[C@H]2C[C@@H](NCc3ccc(-c4cnc(C#N)c(OC)c4)cc3)C[C@H]2O)c2cc(CC(F)(F)F)sc2n1 [Example 106, 5-[4-({[(1R,3R,4S)-3-hydroxy-4-{[2-methoxy-6-(2,2,2-trifluoroethyl)thieno[2,3-d]pyrimidin-4-yl](methyl)amino}cyclopentyl]amino}methyl)phenyl]-3-methoxypyridine-2-carbonitrile hydrochloride] | – | 0.7 nM
COc1cc(-c2ccc(CN[C@H]3C[C@@H](O)[C@@H](N(C)c4ncnc5sc(CC(F)(F)F)cc45)C3)cc2)nnc1Oc1cccnc1 [Example 107, (1R,2S,4R)-4-{[(4-{5-methoxy-6-[(pyridin-3-yl)oxy]pyridazin-3-yl}phenyl)methyl]amino}-2-{methyl[6-(2,2,2-trifluoroethyl)thieno[2,3-d]pyrimidin-4-yl]amino}cyclopentan-1-ol hydrochloride] | – | 1.3 nM
COCCOc1nnc(-c2ccc(CN[C@H]3C[C@@H](O)[C@@H](N(C)c4nc(OC)nc5sc(CC(F)(F)F)cc45)C3)cc2)cc1OC [Example 109, (1R,2S,4R)-4-[({4-[5-methoxy-6-(2-methoxyethoxy)pyridazin-3-yl]phenyl}methyl)amino]-2-{[2-methoxy-6-(2,2,2-trifluoroethyl)thieno[2,3-d]pyrimidin-4-yl](methyl)amino}cyclopentan-1-ol hydrochloride] | 0.7 nM | –
COc1nc(N(C)[C@H]2C[C@@H](NCc3ccc(-c4nnc(OC(F)F)cc4OC)cc3)C[C@H]2O)c2cc(CC(F)(F)F)sc2n1 [Example 110, (1R,2S,4R)-4-[({4-[6-(difluoromethoxy)-4-methoxypyridazin-3-yl]phenyl}methyl)amino]-2-{[2-methoxy-6-(2,2,2-trifluoroethyl)thieno[2,3-d]pyrimidin-4-yl](methyl)amino}cyclopentan-1-ol hydrochloride] | – | 2.1 nM
COc1nc(N(C)[C@H]2C[C@@H](NCc3ccc(-c4nn(C(F)F)c(=O)cc4OC)cc3)C[C@H]2O)c2cc(CC(F)(F)F)sc2n1 [Example 111, 2-(difluoromethyl)-6-[4-({[(1R,3R,4S)-3-hydroxy-4-{[2-methoxy-6-(2,2,2-trifluoroethyl)thieno[2,3-d]pyrimidin-4-yl](methyl)amino}cyclopentyl]amino}methyl)phenyl]-5-methoxypyridazin-3(2H)-one hydrochloride] | – | 42.3 nM
COc1nc(N(C)[C@H]2C[C@@H](NCc3ccc(-c4cnc(CO)c(OC)c4)cc3)C[C@H]2O)c2cc(CC(F)(F)F)sc2n1 [Example 112, (1R,2S,4R)-4-[({4-[6-(hydroxymethyl)-5-methoxypyridin-3-yl]phenyl}methyl)amino]-2-{[2-methoxy-6-(2,2,2-trifluoroethyl)thieno[2,3-d]pyrimidin-4-yl](methyl)amino}cyclopentan-1-ol hydrochloride] | – | 0.8 nM
C=CC(=O)N(C)c1nnc(-c2ccc(CN[C@H]3C[C@@H](O)[C@@H](N(C)c4nc(OC)nc5sc(CC(F)(F)F)cc45)C3)cc2)cc1OC [Example 113, N-{6-[4-({[(1R,3R,4S)-3-hydroxy-4-{[2-methoxy-6(2,2,2-trifluoroethyl)thieno[2,3-d]pyrimidin-4-yl](methyl)amino}cyclopentyl]amino}methyl)phenyl]-4-methoxypyridazin-3-yl}-N-methylprop-2-enamide hydrochloride] | – | 29.2 nM
COc1nc(N(C)[C@H]2C[C@@H](NCc3ccc(-c4cc(OC)c(Oc5ccccc5)nn4)cc3)C[C@H]2O)c2cc(CC(F)(F)F)sc2n1 [Example 114, (1R,2S,4R)-4-({[4-(5-methoxy-6-phenoxypyridazin-3-yl)phenyl]methyl}amino)-2-{[2-methoxy-6-(2,2,2-trifluoroethy)thieno[2,3-d]pyrimidin-4-yl](methyl)amino}cyclopentan-1-ol hydrochloride] | 1.5 nM | –
COc1nc(N(C)[C@H]2C[C@@H](NCC3CCN(c4cc(OC)c(OC)nn4)CC3)C[C@H]2O)c2cc(CC(F)(F)F)sc2n1 [Example 115, (1R,2S,4R)-4-({[1-(5,6-dimethoxypyridazin-3-yl)piperidin-4-yl]methyl}amino)-2-{[2-methoxy-6-(2,2,2-trifluoroethyl)thieno[2,3-d]pyrimidin-4-yl](methyl)amino}cyclopentan-1-ol hydrochloride] | – | 10.9 nM
COc1nc(N(C)[C@H]2C[C@@H](NCc3ccc(-c4cc(OC)c(OC)cn4)cc3)C[C@H]2O)c2cc(CC(F)(F)F)sc2n1 [Example 116, (1R,2S,4R)-4-({[4-(4,5-dimethoxypyridin-2-yl)phenyl]methyl}amino)-2-{[2-methoxy-6-(2,2,2-trifluoroethyl)thieno[2,3-d]pyrimidin-4yl](methyl)amino}cyclopentan-1-ol hydrochloride] | 1 nM | –
COc1nc(N(C)[C@H]2C[C@@H](NCc3ccc(-c4cnc(N(C)C)c(OC)c4)cc3)C[C@H]2O)c2cc(CC(F)(F)F)sc2n1 [Example 117, (1R,2S,4R)-4-[({4-[6-(dimethylamino)-5-methoxypyridin-3-yl]phenyl}methyl)amino]-2-{[2-methoxy-6-(2,2,2-trifluoroethyl)thieno[2,3-d]pyrimidin-4-yl](methyl)amino}cyclopentan-1-ol hydrochloride] | – | 1.4 nM
COc1nc(N(C)[C@H]2C[C@@H](NCc3ccc(-c4cc(OC)c(OC5CCN(S(C)(=O)=O)CC5)nn4)cc3)C[C@H]2O)c2cc(CC(F)(F)F)sc2n1 [Example 118, (1R,2S,4R)-4-({[4-(6-{[1-(methanesulfonyl)piperidin-4-yl]oxy}-5-methoxypyridazin-3-yl)phenyl]methyl}amino)-2-{[2-methoxy-6-(2,2,2-trifluoroethyl)thieno[2,3-d]pyrimidin-4-yl(methyl)amino}cyclopentan-1-ol hydrochloride] | – | 1 nM
COc1nc(N(C)[C@H]2C[C@@H](NCc3cccc(Nc4cccnc4)c3)C[C@H]2O)c2cc(CC(F)(F)F)sc2n1 [Example 120, (1R,2S,4R)-2-{[2-methoxy-6-(2,2,2-trifluoroethyl)thieno[2,3-d]pyrimidin-4-yl](methyl)amino}-4-[({3-[(pyridin-3-yl)amino]phenyl}methyl)amino]cyclopentan-1-ol hydrochloride] | – | 5.8 nM
[2H]C([2H])([2H])N(c1ncc(-c2ccc(CN[C@H]3C[C@@H](O)[C@@H](N(C)c4ncnc5sc(CC(F)(F)F)cc45)C3)cc2)cc1OC)C([2H])([2H])[2H] [Example 122, (1R,2S,4R)-4-({[4-(6-{bis[(^2H3)methyl]amino}-5-methoxypyridin-3-yl)phenyl]methyl}amino)-2-{methyl[6-(2,2,2-trifluoroethyl)thieno[2,3-d]pyrimidin-4-yl]amino}cyclopentan-1-ol] | – | 1.7 nM
